Laboratory results: patent US20110268812A1, “Cosmetic or dermatological composition comprising the combination of honey and a peptide” (LVMH RECHERCHE, priority 2010, published 2011)
Ends that are not written are not given here. * marks the point of attachment. Palmitoyl = CCCCCCCCCCCCCCCC(=O)*

Test system: normal human fibroblasts (NHFs)
Experiment: In vitro healing test: recolonization of the damaged zone by fibroblasts (IBIDI culture inserts)
Assay type: cell-based
Conditions: 16 h treatment in DMEM alone, final concentrations: clover honey 100 μg/mL, Pal-VGVAPG solution 1%, change vs nontreated control (NT)
Description: This experiment is based on a model of biocompatible cell culture inserts allowing quantitative and perfectly reproducible measurement of the phenomena of healing in vitro.
The cells used in this study are normal human fibroblasts (NHFs).
The cells are seeded in 175 cm^2 flasks at a density of 1 million per flask in DMEM (Dulbecco's Modified Eagle's Medium) culture medium supplemented with 10% of foetal calf serum and 1.3 mM L-glutamine. Having reached confluence, the cells are trypsinized and re-seeded for the healing test.
Before seeding of the cells, inserts sold in the form of kits under the name Culture-Insert (ref. 80209) by the company IBIDI (Germany) are placed at the bottom of six wells of a plate. […]
The cells are maintained in culture for 16 h (optimum measurement time determined previously), in an incubator at 37° C. and in an atmosphere containing 5% CO2. […]
Images are immediately taken on a Nikon TE2000 video microscope in blue fluorescence (cell nuclei) and red fluorescence (actin filaments), at a rate of 2 photos per well at the damaged zone.
Image analysis is used to visualize and quantify the colonization by fibroblasts of the artificially “damaged” zone after removal of the insert. […]
The number of cells that have recolonized the damaged zone, per unit area (cm^2), is calculated. […]

palmitoyl-Val-Gly-Val-Ala-Pro-Gly (Palmitoyl-VGVAPG) [Pal-VGVAPG, sold in the form of an aqueous-glycolic solution under the trade name Biopeptide EL by the company Sederma]
recolonization of the damaged zone (number of cells having recolonized per cm^2) compared with the nontreated control: +150%
